Measured values: patent US20230053540A1, “TREATMENT OF LIVER INJURY” (Massachusetts Institute of Technology, priority 2019, published 2023)

Test system: hepatocytes
Assay: Seq-Well scRNA-Seq of hepatocytes after APAP overdose (signature scores, DEG vs untreated)
Format: in vivo, mouse

SMILES: CC(=O)Nc1ccc(O)cc1 [APAP, acetaminophen]
- mt-Co2 pct.1 (APAP vs. UT): 0.157
- mt-Co3 avg_logFC (APAP vs. UT): −0.9584
- mt-Co3 pct.1 (APAP vs. UT): 0.198
- mt-Cytb avg_logFC (APAP vs. UT): −0.8775
- mt-Cytb pct.1 (APAP vs. UT): 0.971
- mt-Nd1 avg_logFC (APAP vs. UT): −0.76
- mt-Nd1 pct.1 (APAP vs. UT): 0.978
- mt-Nd2 avg_logFC (APAP vs. UT): −0.8325
- mt-Nd2 pct.1 (APAP vs. UT): 0.978
- mt-Nd4 avg_logFC (APAP vs. UT): −1.116
- mt-Nd4 pct.1 (APAP vs. UT): 0.942
- mt-Nd5 avg_logFC (APAP vs. UT): −0.7797
- mt-Nd5 pct.1 (APAP vs. UT): 0.942
- mt-Rnr1 avg_logFC (APAP vs. UT): −0.3538
- mt-Rnr1 pct.1 (APAP vs. UT): 1
- mt-Rnr2 avg_logFC (APAP vs. UT): −0.5458
- mt-Rnr2 pct.1 (APAP vs. UT): 1
- n-R5-8s1 avg_logFC (APAP vs. UT): 0.6965
- n-R5-8s1 pct.1 (APAP vs. UT): 0.268
- 1700017B05Rik avg_logFC (cluster A6 (APAP 6 hr)): 0.2894
- 1700017B05Rik pct.1 (cluster A6 (APAP 6 hr)): 0.255
- 2010003K11Rik avg_logFC (cluster A6 (APAP 6 hr)): 0.4872
- 2010003K11Rik pct.1 (cluster A6 (APAP 6 hr)): 0.396
- Abca1 avg_logFC (cluster A6 (APAP 6 hr)): 0.5058
- Abca1 pct.1 (cluster A6 (APAP 6 hr)): 0.604
- Abhd2 avg_logFC (cluster A6 (APAP 6 hr)): 0.3593
- Abhd2 pct.1 (cluster A6 (APAP 6 hr)): 0.37
- Agpat9 avg_logFC (cluster A6 (APAP 6 hr)): 0.2968
- Agpat9 pct.1 (cluster A6 (APAP 6 hr)): 0.277
- Alb avg_logFC (cluster A6 (APAP 6 hr)): 0.4181
- Alb pct.1 (cluster A6 (APAP 6 hr)): 1
- Apoa4 avg_logFC (cluster A6 (APAP 6 hr)): 0.945
- Apoa4 pct.1 (cluster A6 (APAP 6 hr)): 0.721
- Apob avg_logFC (cluster A6 (APAP 6 hr)): 0.3564
- Apob pct.1 (cluster A6 (APAP 6 hr)): 0.99
- Apobec1 avg_logFC (cluster A6 (APAP 6 hr)): 0.2824
- Apobec1 pct.1 (cluster A6 (APAP 6 hr)): 0.239
- App avg_logFC (cluster A6 (APAP 6 hr)): 0.3291
- App pct.1 (cluster A6 (APAP 6 hr)): 0.315
- Asl avg_logFC (cluster A6 (APAP 6 hr)): 0.434
- Asl pct.1 (cluster A6 (APAP 6 hr)): 0.826
- B4galt5 avg_logFC (cluster A6 (APAP 6 hr)): 0.402
- B4galt5 pct.1 (cluster A6 (APAP 6 hr)): 0.332
- Bach1 avg_logFC (cluster A6 (APAP 6 hr)): 0.6724
- Bach1 pct.1 (cluster A6 (APAP 6 hr)): 0.461
- Bcl2l1 avg_logFC (cluster A6 (APAP 6 hr)): 0.6863
- Bcl2l1 pct.1 (cluster A6 (APAP 6 hr)): 0.501
- Btg1 avg_logFC (cluster A6 (APAP 6 hr)): 0.4265
- Btg1 pct.1 (cluster A6 (APAP 6 hr)): 0.356
- Btg2 avg_logFC (cluster A6 (APAP 6 hr)): 0.5388
- Btg2 pct.1 (cluster A6 (APAP 6 hr)): 0.549
- C1qa avg_logFC (cluster A6 (APAP 6 hr)): 0.471
- C1qa pct.1 (cluster A6 (APAP 6 hr)): 0.174
- C1qb avg_logFC (cluster A6 (APAP 6 hr)): 0.5946
- C1qb pct.1 (cluster A6 (APAP 6 hr)): 0.234
- C1qc avg_logFC (cluster A6 (APAP 6 hr)): 0.5477
- C1qc pct.1 (cluster A6 (APAP 6 hr)): 0.172
- C230081A13Rik avg_logFC (cluster A6 (APAP 6 hr)): 0.4148
- C230081A13Rik pct.1 (cluster A6 (APAP 6 hr)): 0.279
- Ccl6 avg_logFC (cluster A6 (APAP 6 hr)): 0.7552
- Ccl6 pct.1 (cluster A6 (APAP 6 hr)): 0.274
- Cd5l avg_logFC (cluster A6 (APAP 6 hr)): 0.5663
- Cd5l pct.1 (cluster A6 (APAP 6 hr)): 0.21
- Cd14 avg_logFC (cluster A6 (APAP 6 hr)): 0.3587
- Cd14 pct.1 (cluster A6 (APAP 6 hr)): 0.153
- Cd44 avg_logFC (cluster A6 (APAP 6 hr)): 0.2929
- Cd44 pct.1 (cluster A6 (APAP 6 hr)): 0.115
- Cd53 avg_logFC (cluster A6 (APAP 6 hr)): 0.2561
- Cd53 pct.1 (cluster A6 (APAP 6 hr)): 0.103
- Cd74 avg_logFC (cluster A6 (APAP 6 hr)): 0.4419
- Cd74 pct.1 (cluster A6 (APAP 6 hr)): 0.155
- Cd97 avg_logFC (cluster A6 (APAP 6 hr)): 0.3303
- Cd97 pct.1 (cluster A6 (APAP 6 hr)): 0.115
- Cd163 avg_logFC (cluster A6 (APAP 6 hr)): 0.4066
- Cd163 pct.1 (cluster A6 (APAP 6 hr)): 0.146
- Cdkn1a avg_logFC (cluster A6 (APAP 6 hr)): 1.099
- Cdkn1a pct.1 (cluster A6 (APAP 6 hr)): 0.702
- Cers6 avg_logFC (cluster A6 (APAP 6 hr)): 0.4774
- Cers6 pct.1 (cluster A6 (APAP 6 hr)): 0.332
- Ces1d avg_logFC (cluster A6 (APAP 6 hr)): 0.3854
- Ces1d pct.1 (cluster A6 (APAP 6 hr)): 0.859
- Cfp avg_logFC (cluster A6 (APAP 6 hr)): 0.3251
- Cfp pct.1 (cluster A6 (APAP 6 hr)): 0.143
- Chic2 avg_logFC (cluster A6 (APAP 6 hr)): 0.39
- Chic2 pct.1 (cluster A6 (APAP 6 hr)): 0.37
- Chka avg_logFC (cluster A6 (APAP 6 hr)): 1.387
- Chka pct.1 (cluster A6 (APAP 6 hr)): 0.716
- Cidec avg_logFC (cluster A6 (APAP 6 hr)): 0.3068
- Cidec pct.1 (cluster A6 (APAP 6 hr)): 0.253
- Clec4f avg_logFC (cluster A6 (APAP 6 hr)): 0.9909
- Clec4f pct.1 (cluster A6 (APAP 6 hr)): 0.339
- Clec4d avg_logFC (cluster A6 (APAP 6 hr)): 0.2622
- Clec4d pct.1 (cluster A6 (APAP 6 hr)): 0.107
- Cltc avg_logFC (cluster A6 (APAP 6 hr)): 0.6346
- Cltc pct.1 (cluster A6 (APAP 6 hr)): 0.661
- Creb3l2 avg_logFC (cluster A6 (APAP 6 hr)): 0.3363
- Creb3l2 pct.1 (cluster A6 (APAP 6 hr)): 0.329
- Ctsl avg_logFC (cluster A6 (APAP 6 hr)): 0.4384
- Ctsl pct.1 (cluster A6 (APAP 6 hr)): 0.878
- Ctss avg_logFC (cluster A6 (APAP 6 hr)): 0.7031
- Ctss pct.1 (cluster A6 (APAP 6 hr)): 0.212
